# From patent US20100331812A1, “Pharmaceutical Formulations for Iontophoretic Delivery of an Immunomodulator” (Nitric BioTherapeutics, Inc., priority 2009, published 2010)
# Key:
# [1] = In vivo skin depot quantification, 0.3% w/w imiquimod formulation
# Source text: The effect of iontophoresis on its ability to enhance delivery of 0.3% w/w imiquimod (pH 4.0) formulation in vivo into the stratum corneum and the underlying skin (lower epidermis and dermis) was examined.
# Hairless rats were anesthetized using Ketamine and Xylazine. An area on the abdomen was marked and cleaned. Drug formulation was loaded onto an iontophoretic drug cartridge and was secured on the area with tape. For iontophoretic delivery, the cartridge was connected to a current source and a TransQ iontophoretic patch (Iomed) served as the counter electrode. A current density of 0.2 mA/cm^2 was applied for 15 min. At the end of 15 min, the drug loaded cartridges were removed and excess drug on the site was removed. Tape stripping (3M Transpore™ tape) was performed to quantify the drug levels in the stratum corneum. Transepidermal water loss (TEWL) measurements were also taken to ensure the complete removal of the stratum corneum. The rats were then euthanized and the skin samples were excised for further analysis. A skin extraction assay was performed to quantify the drug levels in the underlying skin immediately after 15 min iontophoresis or passive.
# [2] = Solubility of imiquimod in excipient formulation, by HPLC; format: physicochemical; conditions: about 3 mg/mL imiquimod in about 30% w/w PEG 400, 10% w/w glycerin, 3% w/w polysorbate 80 at pH 4
# Method: (§1) The effect of iontophoresis on the permeation profile of imiquimod across hairless rat skin in vitro was examined. The solubility of imiquimod was tested in various solvent matrices and a formulation with acceptable solubility was employed for further in vitro and in vivo studies as described herein. The following methods were performed.
# Using the above methods, various excipients were tested to prepare a formulation with sufficient solubility for imiquimod.
# [3] = Skin irritation or redness observed in the in vivo studies; design: species or system hairless rat; conditions: any of the in vivo studies
# Method: (§2) A topical delivery system containing 2% w/w drug formulation (consisting of 20% PEG 400, 10% propylene glycol, 20% Transcutol P, 3% Tween 80 and 10% glycerin; in w/w, final pH 3.6) was employed. The formulation was loaded into a cartridge and iontophoresis (0.2 mA/cm^2, 15 min) was used to deliver the drug into the skin using the hairless rat model as described herein. A passive delivery control was run for comparison. […] Transepidermal water loss (TEWL) measurements were taken to ensure the removal of the stratum corneum.
# [4] = cited from earlier work
# [5] = In vitro permeation across hairless rat skin, Franz diffusion cells, with tape stripping and skin extraction; format: in vitro ADME; conditions: for cumulative amount of drug permeated at 24 hr, passive: passive diffusion
# Method: as §1
# For the in vitro studies, Franz diffusion cells were employed. Hairless rats were euthanized by carbon dioxide asphyxiation and the abdominal skin area was excised and carefully cleaned to remove excess fat. The skin was then mounted onto Franz diffusion cells. Citrate buffer with 20% ethanol was employed as the receptor buffer and the drug formulation was placed in the donor chamber. For iontophoretic delivery, a silver/silver chloride electrode system was used. […] Samples were taken at predetermined time points and the receptor chamber was replenished with fresh receptor buffer accordingly. At completion, the skin samples were dismounted and washed with the receptor buffer to remove excess drug. Tape stripping and skin extraction studies were performed to quantify the amount of the drug in the skin. All the samples were analyzed via HPLC (C18 column; mobile phase: acetonitrile/50 mM ammonium acetate (70:30); injection volume: 10 μl UV detection at 250 nm).
# [6] = In vivo skin depot formation and desorption, 2% w/w imiquimod formulation with Transcutol P; design: species or system hairless rat
# Method: In this example the formation and pharmacokinetics of an imiquimod skin depot following iontophoretic delivery in an in vivo hairless rat model were examined.
# as §2
# [7] = 0.3% w/w, 0.2 mA/cm^2 for 15 min
# [8] = 0.3% w/w, pH 4.0, after about 15 min of treatment
# [9] = in vivo, 2% w/w, 72 hrs after application
compound,measurement,setting,value
CC(C)Cn1cnc2c(N)nc3ccccc3c21 [Imiquimod],"drug in the stratum corneum, iontophoresis",[1]; [7],11.91 µg
same,"drug in the underlying tissue, iontophoresis",[1]; [7],0.591 µg
same,"drug detection in the stratum corneum at 72 hr, iontophoresis","[1]; 0.3% w/w, 72 hr from treatment",still detected
same,"drug detection in the stratum corneum at 72 hr, passive","[1]; 0.3% w/w, 72 hr from treatment",no drug was detected
same,"drug detection in the underlying skin at 72 hr, iontophoresis","[1]; 0.3% w/w, 72 hr from treatment",still detected
same,"drug in the underlying tissue at 72 hr, passive","[1]; 0.3% w/w, 72 hr from treatment",small amount of drug was also present
same,"drug level in the stratum corneum, iontophoresis vs passive","[1]; 0.3% w/w, after 15 min of treatment",10 fold
same,"drug in the stratum corneum, passive",[1]; [8],1.07 µg
same,"drug in the underlying skin, passive",[1]; [8],0.40 µg
same,residence time of the depot in the stratum corneum after iontophoresis,[1]; iontophoresis,more than 72 hr
same,solubility level,[2],about 0.3%
same,irritation or redness of the skin,[3],not observed
same,log P,[4],2.7
same,pKa,[4],7.3
same,"cumulative amount of drug permeated at 24 hours, iontophoresis","[5]; 0.3% w/w formulation, 0.2 mA/cm^2 for 15 min, then passive diffusion to 24 hr",22.41 μg/cm^2
same,permeation following iontophoresis,"[5]; 0.3% w/w formulation, iontophoresis for 15 min, end of 24 hr",approximately 22 pg/cm
same,"cumulative amount of drug permeated at 24 hr, passive",[5]; 0.3% w/w formulation,2.24 μg/cm^2
same,"cumulative amount of drug permeated at 24 hr, passive","[5]; 0.3% w/w formulation, listed as imiquimod",approximately 2 μg/cm^2
same,"amount of drug in the underlying skin, iontophoretic","[5]; in vitro, 0.2 mA/cm^2 15 min, end of 24 hr study, skin extraction",6.31 µg
same,"amount of drug in the stratum corneum, iontophoretic","[5]; in vitro, 0.2 mA/cm^2 15 min, end of 24 hr study, tape stripping",7.53 µg
same,"amount of drug in the underlying skin, passive","[5]; in vitro, end of 24 hr study, skin extraction",6.27 µg
same,"amount of drug in the stratum corneum, passive","[5]; in vitro, end of 24 hr study, tape stripping",1.31 µg
same,imiquimod delivered to the skin,[6]; 15 min iontophoresis at 0.2 mA/cm^2,approximately 14 ug
same,"total skin drug level, iontophoretic delivery, after 15 min","[6]; in vivo, 2% w/w, pH 3.6, 0.2 mA/cm^2, 15 min",14.19 ± 2.07 µg
same,"total skin drug level, passive delivery, after 15 min","[6]; in vivo, 2% w/w, pH 3.6, passive, 15 min",3.26 ± 0.63 µg
same,"drug detection in the stratum corneum at 72 hrs, iontophoretic","[6]; in vivo, 2% w/w, 72 hrs",still detected
same,"drug detection in the underlying skin at 72 hrs, iontophoretic","[6]; in vivo, 2% w/w, 72 hrs",No drug was detected
same,"drug detection in the underlying skin at 72 hrs, passive","[6]; in vivo, 2% w/w, 72 hrs",No drug was detected
same,"total skin drug level, iontophoretic delivery, at 72 hrs",[6]; [9],5.50 ± 2.76 µg
same,"total skin drug level, passive delivery, at 72 hrs",[6]; [9],1.96 ± 0.37 µg
